From US20130310374A1, “Substituted Imidazoquinoline Derivatives” (PIRAMAL ENTERPRISES LIMITED`, priority 2010, published 2013)

How the values were obtained:
[1] = test system: human PANC-1 xenograft tumors; assay: Pancreatic cancer xenograft model (tumor growth inhibition in vivo); design: species or system mouse; conditions: SCID mice, 3 mpk once daily p.o., 14 days; FIG. 3B
Procedure: Animals: Severe combined immunodeficient (SCID) mice (Male and Female) 6 to 8 weeks old, were used. Animals were housed in suitable cages under specified pathogen-free conditions in rooms maintained at 23° C. and 50% humidity, with a 12-hour light/12-hour dark cycle. The mice were quarantined during the acclimatization period of at least a week.
Pancreatic Cancer xenograft model: The human pancreatic carcinoma cells, (PANC-1) (ATCC) were grown in Eagle's Minimum Essential Medium (SAFC, US) supplemented with 10% (v/v) fetal bovine serum. The cells were incubated at 37° C. in a humidified atmosphere containing 5% CO2. […]
Tumor-bearing mice were randomized in two groups when the mean tumor weight was ˜100 mg. […] Twice a week, each xenograft was measured in two dimensions (a=length; b=width) with a caliper. Tumor volume (V) was determined by the following equation:
Tumor volumes were converted into tumor weights assuming a tumor density of 1 mm^3=1 mg. Tumor growth inhibition (TGI) for each group was calculated according to the following formula: […]
Wherein, T and T0 are the mean tumor volumes on a specific experimental day and on day 1 of treatment, respectively, for the experimental groups. […] Animals in each group were observed every day for signs of health deterioration and animal weight was recorded daily. […]

mTOR = target: T1, mTOR (Homo sapiens, UniProt P42345); assay: mTOR inhibition assay (ProQinase); assay type: biochemical; conditions: tested at ProQinase, Germany; read-out: IC50, mTOR enzyme activity
T1 construct: ProQinase, Germany (contract testing)
Procedure: The compounds of the present invention were tested at ProQinase, Germany.

[2] = test system: Human umbilical vein endothelial cells (HUVECs); assay: VEGF induced tube formation assay; assay type: cell-based; conditions: HUVECs on Matrigel, compound 75 nM, 18 hours; FIG. 2
Procedure: Protocol for Tube Formation Assay
Cell Culture: Human umbilical vein endothelial cells (HUVECs) (ATCC) used in passages 2-7. The cells were grown in endothelial medium (Promocell, Germany) supplemented with 20% fetal bovine serum (FBS), 100 units/mL penicillin, 100 μg/mL streptomycin, 3 ng/mL basic fibroblast growth factor, and 5 units/mL heparin at 37° C. under a humidified 95% (v/v) mixture of air and CO2.
Tube Formation Assay: 250 μl of growth factor-reduced Matrigel (BD Biosciences) was pipetted into a 24 well tissue culture plate and polymerized for 30 minutes at 37° C. HUVECs incubated in endothelial media containing 1% FBS for 6 hours were harvested after trypsin treatment and suspended in endothelial media containing 1% FBS. Compounds of present invention (75 nM) were added to the cells for 30 minutes at RT before seeding and plated onto the layer of Matrigel at a density of 2×10^4 cells/well, and followed by the addition of 2 mL of 40 ng/mL VEGF. After 18 hours, the cultures were photographed.
Results: When HUVECs were placed on growth factor-reduced Matrigel in the presence of VEGF, VEGF led to the formation of elongated and robust tube-like structures, which were organized by much larger number of cells compared with the control.

PI3Kα = target: T2, PI3Kα (Homo sapiens, UniProt P42336); assay: p110α radioactive lipid kinase assay (PI3Kα); assay type: biochemical; conditions: 25 μM ATP
T2 construct: purchased Upstate Millipore
Procedure: Protocol for Kinase Assay (PI3Kα)
p110α Radioactive Lipid Kinase Assay
The assay was designed as in the reference, Journal of Biomolecular Screening, 2002, Vol. 7, No. 5, 441-450, the disclosure of which is incorporated herein by reference for the teaching of the assay.
The p110α biochemical assay was performed using a radioactive assay measuring the incorporation of ^32P into the p110α substrate, phosphatidylinsoitol (PI). For the generation of IC50 curves, the reaction was performed in a 96-well MaxiSorp plates. Plates were pre-coated with 4 μg/well of a 1:1 ratio of phosphatidylinositol (PI: Avanti #840042C) and phosphatidylserine (PS: Avanti #840032C) diluted in CHCl3. Equal amount of p110α (Upstate Millipore) protein was added to each well, containing 25 μL reaction buffer (50 mM MOPSO pH7.0, 100 mM NaCl, 4 mM MgCl2, 0.1% (w/v) BSA) whereas, for negative control, only reaction buffer was added. Compounds of the present invention dissolved in DMSO were treated at nine-point dose responses (0.3, 1, 3, 6, 10, 30, 60, 100 and 300 nM). Reactions were initiated by the addition of 25 μM ATP solution (Sigma, USA) containing 50 μCi/mL [γ-^32P]-ATP and incubated at RT for 2 hours with gentle shaking. […] The radioactivity incorporated into the immobilized PI substrate was determined with Top Count (Perkin Elmer). Inhibition was calculated using the following equation: […]

T2 sequence (P42336 whole entry, species assumed): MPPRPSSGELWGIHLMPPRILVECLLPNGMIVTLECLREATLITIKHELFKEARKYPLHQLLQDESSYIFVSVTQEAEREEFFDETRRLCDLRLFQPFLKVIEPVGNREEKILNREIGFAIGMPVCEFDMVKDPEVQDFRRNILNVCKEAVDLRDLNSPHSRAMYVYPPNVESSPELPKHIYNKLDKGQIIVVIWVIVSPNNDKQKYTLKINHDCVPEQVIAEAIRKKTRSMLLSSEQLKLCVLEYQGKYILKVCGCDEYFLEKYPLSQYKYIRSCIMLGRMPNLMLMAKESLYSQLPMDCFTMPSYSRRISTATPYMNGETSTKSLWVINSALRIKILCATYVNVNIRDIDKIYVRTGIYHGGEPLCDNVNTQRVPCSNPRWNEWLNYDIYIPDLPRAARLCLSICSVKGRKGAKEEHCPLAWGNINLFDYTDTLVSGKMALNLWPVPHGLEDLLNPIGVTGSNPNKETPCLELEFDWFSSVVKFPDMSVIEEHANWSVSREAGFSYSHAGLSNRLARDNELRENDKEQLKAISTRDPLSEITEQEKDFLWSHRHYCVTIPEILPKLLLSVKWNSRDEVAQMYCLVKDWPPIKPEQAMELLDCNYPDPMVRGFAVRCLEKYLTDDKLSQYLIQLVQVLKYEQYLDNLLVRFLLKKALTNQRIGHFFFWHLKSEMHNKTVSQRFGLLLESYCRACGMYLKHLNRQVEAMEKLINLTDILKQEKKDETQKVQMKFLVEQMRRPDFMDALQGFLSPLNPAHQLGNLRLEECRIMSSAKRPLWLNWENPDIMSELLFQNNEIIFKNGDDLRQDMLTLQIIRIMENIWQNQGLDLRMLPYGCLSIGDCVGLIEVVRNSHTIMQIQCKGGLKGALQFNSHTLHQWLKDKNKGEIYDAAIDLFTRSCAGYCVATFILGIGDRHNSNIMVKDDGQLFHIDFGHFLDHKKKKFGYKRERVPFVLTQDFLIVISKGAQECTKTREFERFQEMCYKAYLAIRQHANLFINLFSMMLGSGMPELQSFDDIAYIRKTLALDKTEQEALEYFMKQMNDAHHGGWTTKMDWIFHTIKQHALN
T2 sequence (P27986 whole entry partner, species assumed): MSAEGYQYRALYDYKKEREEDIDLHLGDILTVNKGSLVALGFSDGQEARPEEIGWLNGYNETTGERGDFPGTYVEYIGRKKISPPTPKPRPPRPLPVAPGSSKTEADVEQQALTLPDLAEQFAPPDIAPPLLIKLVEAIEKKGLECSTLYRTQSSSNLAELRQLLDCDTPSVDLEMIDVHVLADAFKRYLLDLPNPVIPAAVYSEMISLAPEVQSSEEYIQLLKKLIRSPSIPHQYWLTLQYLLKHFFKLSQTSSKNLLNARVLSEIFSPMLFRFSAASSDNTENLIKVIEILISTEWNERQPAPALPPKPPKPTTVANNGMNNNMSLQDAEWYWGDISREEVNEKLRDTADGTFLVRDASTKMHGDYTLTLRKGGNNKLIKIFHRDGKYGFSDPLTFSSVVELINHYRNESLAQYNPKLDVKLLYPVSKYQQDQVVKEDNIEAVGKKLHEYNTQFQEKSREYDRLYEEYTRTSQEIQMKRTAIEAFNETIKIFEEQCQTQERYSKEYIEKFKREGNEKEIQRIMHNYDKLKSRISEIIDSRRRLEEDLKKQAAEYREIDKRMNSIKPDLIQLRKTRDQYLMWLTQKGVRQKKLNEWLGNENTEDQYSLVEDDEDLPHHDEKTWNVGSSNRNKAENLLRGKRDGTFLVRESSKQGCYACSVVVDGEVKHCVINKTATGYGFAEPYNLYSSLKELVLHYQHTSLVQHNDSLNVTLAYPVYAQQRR

Row | Structure (SMILES) | Growth of pancreatic tumors, PANC-1 xenograft [1] | IC50 (mTOR) [nM] | VEGF (40 ng/mL) induced tube formation [2] | IC50 (PI3Kα) [nM]
1 | CS(=O)(=O)O.Cn1c(=O)n(-c2ccc(C(C)(C)C#N)nc2)c2c3cc(-c4cnc(N)c(C(F)(F)F)c4)ccc3ncc21 [Example 3a, 8-(6-Amino-5-(trifluoromethyl)pyridin-3-yl)-1-(6-(2-cyanopropan-2-yl)pyridin-3-yl)-3-methyl-2-oxo-2,3-dihydro-1H-imidazo[4,5-c]quinolin-5-ium methanesulfonate] | effectively inhibited the growth of pancreatic tumors | 4.4 | effectively abrogated the width and the length of endothelial tubes induced by VEGF | 1.37
2 | COc1ccc(-n2c(=O)n(C)c3cnc4ccc(-c5cnc(N)c(C(F)(F)F)c5)cc4c32)cn1 [Example 19, 8-(6-Amino-5-(trifluoromethyl)pyridin-3-yl)-1-(6-methoxypyridin-3-yl)-3-methyl-1H-imidazo[4,5-c]quinolin-2(3H)-one] | – | – | – | 2.89
